In patent US20220323406A1, “METHODS AND COMPOSITIONS FOR DIFFERENTIATING STEM CELLS” (Massachusetts Institute of Technology, priority 2019, published 2022):

Tests used:
[1] = test system: ENR+CD organoids (ISC to Paneth cell differentiation); assay: Primary screen: basal (non-stimulated) lysozyme secretion LYZ.NS, 2.5-D 384-well ENR+CD organoid differentiation; type: cell-based, mouse
Source text: (§1) High-throughput screening.

[2] = test system: ENR+CD organoids (ISC to Paneth cell differentiation); assay: Primary screen: CCh-stimulated lysozyme secretion LYZ.S, 2.5-D 384-well ENR+CD organoid differentiation; type: cell-based, mouse; conditions: primary screen
Source text: as §1

[3] = test system: ENR+CD organoids; assay: Primary screen: ATP (CellTiter-Glo 3D, CTG) cell number/viability, 2.5-D 384-well ENR+CD organoids; conditions: primary screen; for Z.CTG: standard z score;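 for all read-outs here: compounds given at plating and again on day 3 over a 6-day differentiation from ENR+CV stem-cell-enriched precursors, ATP measured on day 6, plate median as control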
[4] = primary screen, dose 0.08 uM, FC relative to plate median
[5] = primary screen, dose 0.08 uM, standard z score
[6] = primary screen, dose 0.40 uM, FC relative to plate median
[7] = primary screen, dose 0.40 uM, standard z score
[8] = primary screen, dose 2.00 uM, FC relative to plate median
[9] = primary screen, dose 2.00 uM, standard z score
[10] = primary screen, dose 10.00 uM, FC relative to plate median
[11] = primary screen, dose 10.00 uM, standard z score
[12] = dose 0.08 uM, FC relative to plate median
[13] = dose 0.40 uM, FC relative to plate median
[14] = dose 2.00 uM, FC relative to plate median
[15] = dose 10.00 uM, FC relative to plate median
[16] = primary screen; dose 0.08 uM; FC vs plate median
[17] = primary screen; dose 0.40 uM; FC vs plate median
[18] = primary screen; dose 2.00 uM; FC vs plate median
[19] = primary screen; dose 10.00 uM; FC vs plate median
[20] = dose 0.08 uM, FC vs plate median
[21] = dose 0.40 uM, FC vs plate median
[22] = dose 2.00 uM, FC vs plate median
[23] = dose 10.00 uM, FC vs plate median
[24] = primary screen, standard z score, dose 0.08 uM
[25] = primary screen, standard z score, dose 0.40 uM
[26] = primary screen, standard z score, dose 2.00 uM
[27] = primary screen, standard z score, dose 10.00 uM

| SMILES | Dose.FC.LYZ.NS [1, 4] [log2 fold change] | Z.LYZ.NS [1, 5] | Dose.FC.LYZ.NS [1, 6] [log2 fold change] | Z.LYZ.NS [1, 7] | Dose.FC.LYZ.NS [1, 8] [log2 fold change] | Z.LYZ.NS [1, 9] | Dose.FC.LYZ.NS [1, 10] [log2 fold change] | Z.LYZ.NS [1, 11] | Dose.FC.LYZ.NS ([1]; primary screen, dose 0.08 uM) [log2 fold change] | Dose.FC.LYZ.NS ([1]; primary screen, dose 0.40 uM) [log2 fold change] | Dose.FC.LYZ.NS ([1]; primary screen, dose 2.00 uM) [log2 fold change] | Dose.FC.LYZ.NS ([1]; primary screen, dose 10.00 uM) [log2 fold change] | Dose.FC.LYZ.S ([2]; dose 0.08 uM) [log2 fold change] | Dose.FC.LYZ.S ([2]; dose 0.40 uM) [log2 fold change] | Dose.FC.LYZ.S ([2]; dose 2.00 uM) [log2 fold change] | Dose.FC.LYZ.S ([2]; dose 10.00 uM) [log2 fold change] | Dose.FC.CTG ([3]; dose 0.08 uM) [log2 fold change] | Dose.FC.CTG ([3]; dose 0.40 uM) [log2 fold change] | Dose.FC.CTG ([3]; dose 2.00 uM) [log2 fold change] | Dose.FC.CTG ([3]; dose 10.00 uM) [log2 fold change] | other results |
| --- | --- | --- | --- | --- | --- | --- | --- | --- | --- | --- | --- | --- | --- | --- | --- | --- | --- | --- | --- | --- | --- |
| Cc1[nH]c(/C=C2\C(=O)Nc3ccc(S(=O)(=O)N(C)c4cccc(Cl)c4)cc32)c(C)c1C(=O)N1CCN(C)CC1 [SU11274] | 0.084 | 0.735 | 0.120 | 1.043 | 0.005 | 0.047 | −0.207 | −1.804 |  |  |  |  |  |  |  |  |  |  |  |  | Dose.FC.LYZ.S [2, 12]: 0.115 log2 fold change; Dose.FC.LYZ.S [2, 13]: 0.298 log2 fold change; Dose.FC.LYZ.S [2, 14]: 0.008 log2 fold change; Dose.FC.LYZ.S [2, 15]: −0.300 log2 fold change; Dose.FC.CTG [3, 12]: 0.357 log2 fold change; Dose.FC.CTG [3, 13]: 0.270 log2 fold change; Dose.FC.CTG [3, 14]: 0.058 log2 fold change; Dose.FC.CTG [3, 15]: −0.818 log2 fold change |
| Oc1cc(O)cc(/C=C/c2ccc(O)c(O)c2)c1 [Piceatannol] |  | 0.698 |  | 0.375 |  | 0.221 |  | −0.184 |  |  |  |  |  |  |  |  |  |  |  |  | Dose.FC.LYZ.NS [1, 16]: 0.080 log2 fold change; Dose.FC.LYZ.NS [1, 17]: 0.043 log2 fold change; Dose.FC.LYZ.NS [1, 18]: 0.025 log2 fold change; Dose.FC.LYZ.NS [1, 19]: −0.021 log2 fold change; Dose.FC.LYZ.S [2, 20]: 0.094 log2 fold change; Dose.FC.LYZ.S [2, 21]: 0.045 log2 fold change; Dose.FC.LYZ.S [2, 22]: 0.016 log2 fold change; Dose.FC.LYZ.S [2, 23]: −0.104 log2 fold change; Dose.FC.CTG [3, 20]: 0.232 log2 fold change; Dose.FC.CTG [3, 21]: −0.090 log2 fold change; Dose.FC.CTG [3, 22]: 0.074 log2 fold change; Dose.FC.CTG [3, 23]: −0.071 log2 fold change |
| O=c1ncn2nc(Sc3ccc(F)cc3F)ccc2c1-c1c(Cl)cccc1Cl [VX-745] |  |  |  |  |  |  |  |  | 0.092 | 0.004 | 0.021 | −0.006 | 0.154 | 0.054 | 0.058 | 0.038 | 0.186 | 0.146 | 0.018 | 0.022 | Z.LYZ.NS (standard z score) ([1]; primary screen, dose 0.08 uM): 0.805; Z.LYZ.NS (standard z score) ([1]; primary screen, dose 0.40 uM): 0.031; Z.LYZ.NS (standard z score) ([1]; primary screen, dose 2.00 uM): 0.186; Z.LYZ.NS (standard z score) ([1]; primary screen, dose 10.00 uM): −0.049 |
| Oc1ccc(Nc2nc(-c3ccc(Cl)cc3)cs2)cc1 [SKI II] | 0.078 | 0.683 | 0.219 | 1.906 | 0.074 | 0.647 | −0.156 | −1.362 |  |  |  |  |  |  |  |  |  |  |  |  | Dose.FC.LYZ.S [2, 12]: 0.090 log2 fold change; Dose.FC.LYZ.S [2, 13]: 0.123 log2 fold change; Dose.FC.LYZ.S [2, 14]: 0.061 log2 fold change; Dose.FC.LYZ.S [2, 15]: −0.191 log2 fold change; Dose.FC.CTG [3, 12]: 0.293 log2 fold change; Z.CTG ([3]; dose 0.08 uM): 0.699; Dose.FC.CTG [3, 13]: 0.222 log2 fold change; Z.CTG ([3]; dose 0.40 uM): 0.531; Dose.FC.CTG [3, 14]: 0.198 log2 fold change; Z.CTG ([3]; dose 2.00 uM): 0.473; Dose.FC.CTG [3, 15]: −0.336 log2 fold change; Z.CTG ([3]; dose 10.00 uM): −0.802 |
| Cc1cn([C@H]2C=C[C@@H](CO)O2)c(=O)[nH]c1=O [Stavudine (d4T)] | 0.071 | 0.620 | 0.003 | 0.027 | 0.009 | 0.074 | −0.095 | −0.828 |  |  |  |  |  |  |  |  |  |  |  |  | Dose.FC.LYZ.S [2, 12]: 0.134 log2 fold change; Dose.FC.LYZ.S [2, 13]: 0.001 log2 fold change; Dose.FC.LYZ.S [2, 14]: −0.003 log2 fold change; Dose.FC.LYZ.S [2, 15]: −0.120 log2 fold change; Dose.FC.CTG [3, 12]: 0.095 log2 fold change; Z.CTG ([3]; dose 0.08 uM): 0.226; Dose.FC.CTG [3, 13]: 0.147 log2 fold change; Z.CTG ([3]; dose 0.40 uM): 0.351; Dose.FC.CTG [3, 14]: 0.075 log2 fold change; Z.CTG ([3]; dose 2.00 uM): 0.179; Dose.FC.CTG [3, 15]: −0.075 log2 fold change; Z.CTG ([3]; dose 10.00 uM): −0.179 |
| COc1nc(C)cnc1NS(=O)(=O)c1cccnc1-c1ccc(-c2nnco2)cc1 [Zibotentan (ZD4054)] |  |  |  |  |  |  |  |  | 0.094 | 0.054 | −0.003 | 0.101 | 0.168 | 0.130 | −0.038 | 0.050 | 0.104 | −0.009 | −0.768 | −0.001 | Z.LYZ.NS (standard z score) ([1]; primary screen, dose 0.08 uM): 0.820; Z.LYZ.NS (standard z score) ([1]; primary screen, dose 0.40 uM): 0.474; Z.LYZ.NS (standard z score) ([1]; primary screen, dose 2.00 uM): −0.029; Z.LYZ.NS (standard z score) ([1]; primary screen, dose 10.00 uM): 0.877; Z.CTG (standard z score) ([3]; dose 0.08 uM): 0.249; Z.CTG (standard z score) ([3]; dose 0.40 uM): −0.022; Z.CTG (standard z score) ([3]; dose 2.00 uM): −1.834; Z.CTG (standard z score) ([3]; dose 10.00 uM): −0.003 |
| O=C(/C=C/c1ccccc1)NC(NC(=S)Nc1ccc(Cl)cc1)C(Cl)(Cl)Cl (stereo not drawn) [Sal003] | 0.116 | 1.013 | 0.183 | 1.595 | 0.077 | 0.670 | −0.246 | −2.142 |  |  |  |  |  |  |  |  |  |  |  |  | Dose.FC.LYZ.S [2, 12]: 0.092 log2 fold change; Dose.FC.LYZ.S [2, 13]: 0.067 log2 fold change; Dose.FC.LYZ.S [2, 14]: 0.040 log2 fold change; Dose.FC.LYZ.S [2, 15]: −0.408 log2 fold change; Dose.FC.CTG [3, 12]: 0.191 log2 fold change; Z.CTG ([3]; dose 0.08 uM): 0.456; Dose.FC.CTG [3, 13]: 0.155 log2 fold change; Z.CTG ([3]; dose 0.40 uM): 0.370; Dose.FC.CTG [3, 14]: 0.196 log2 fold change; Z.CTG ([3]; dose 2.00 uM): 0.468; Dose.FC.CTG [3, 15]: −0.829 log2 fold change; Z.CTG ([3]; dose 10.00 uM): −1.981 |
| CCOC(=O)C1=C(C)NC(C)=C(C(=O)OC)C1c1cccc(Cl)c1Cl (stereo not drawn) [Felodipine] |  |  |  |  |  |  |  |  | 0.001 | −0.033 | 0.002 | −0.056 | 0.008 | −0.042 | −0.003 | −0.067 | −0.078 | −0.319 | 0.011 | 0.032 | Z.LYZ.NS [1, 24]: 0.010; Z.LYZ.NS [1, 25]: −0.284; Z.LYZ.NS [1, 26]: 0.017; Z.LYZ.NS [1, 27]: −0.487 |
| CC(C)OC(=O)C1=CN(C(=O)c2ccc(F)c(F)c2)CC(C)(C)c2c1[nH]c1ccccc21 [XL335] |  |  |  |  |  |  |  |  | 0.175 | −0.082 | −0.072 | −0.135 | 0.093 | −0.109 | 0.045 | −0.180 | 0.124 | −0.258 | −0.259 | −0.156 | Z.LYZ.NS (standard z score) ([1]; primary screen, dose 0.08 uM): 1.523; Z.LYZ.NS (standard z score) ([1]; primary screen, dose 0.40 uM): −0.711; Z.LYZ.NS (standard z score) ([1]; primary screen, dose 2.00 uM): −0.625; Z.LYZ.NS (standard z score) ([1]; primary screen, dose 10.00 uM): −1.176 |
| Cc1c(Cc2ccc3ccccc3n2)c2cc(F)ccc2n1CC(=O)O [OC000459] |  | 0.416 |  | 0.461 |  | 0.507 |  | 0.287 |  |  |  |  |  |  |  |  |  |  |  |  | Dose.FC.LYZ.NS [1, 16]: 0.048 log2 fold change; Dose.FC.LYZ.NS [1, 17]: 0.053 log2 fold change; Dose.FC.LYZ.NS [1, 18]: 0.058 log2 fold change; Dose.FC.LYZ.NS [1, 19]: 0.033 log2 fold change; Dose.FC.LYZ.S [2, 20]: 0.090 log2 fold change; Dose.FC.LYZ.S [2, 21]: 0.199 log2 fold change; Dose.FC.LYZ.S [2, 22]: 0.130 log2 fold change; Dose.FC.LYZ.S [2, 23]: 0.051 log2 fold change; Dose.FC.CTG [3, 20]: 0.077 log2 fold change; Dose.FC.CTG [3, 21]: −0.065 log2 fold change; Dose.FC.CTG [3, 22]: 0.088 log2 fold change; Dose.FC.CTG [3, 23]: 0.088 log2 fold change |
| CCCCCCCCCCCC1=C(O)C(=O)C=C(O)C1=O [Embelin] |  |  |  |  |  |  |  |  | −0.015 | −0.082 | −0.055 | −0.094 | −0.034 | −0.122 | −0.111 | −0.119 | −0.323 | −0.723 | −0.325 | −0.720 | Z.LYZ.NS [1, 24]: −0.129; Z.LYZ.NS [1, 25]: −0.712; Z.LYZ.NS [1, 26]: −0.482; Z.LYZ.NS [1, 27]: −0.819 |
